Test results from patent US11274332B2, “Methods of administering 3,4-diaminopyridine” (SERB SA, priority 2011, dated 2022).
Like-named read-outs stand apart in the source and are kept apart here.

Test: Example 18 Part 2: multiple dose PK (20 mg QID) of 3,4-DAP and 3-N-acetyl metabolite in slow and fast acetylators
Assay type: in vivo, human
Settings: for AUC(0-t) / Cmax / Tmax / Vd/F / half-life: both sexes, human, plasma, oral, 20 mg; for Tmax: read-out: Mean Tmax; for Vd/F: read-out: Mean Vz/F; for half-life: read-out: Mean t1/2 (converted)
Procedure: The following method was used to analyze concentrations of 3,4-diaminopyridine and N-(4-aminopyridin-3-yl)acetamide in plasma and urine samples for the experiments in Example 18. In the LC/MS/MS method, the human plasma and urine samples were extracted using acetonitrile containing 0.1% formic acid. Samples were analyzed by using HPLC with positive ion electrospray MS/MS detection. The column was an Atlantis HILIC Silica column (3 μm, 3×50 mm) at a temperature of 40° C. Mobile phase A was water containing ammonium formate (20 mM) and 0.1% formic acid. Mobile phase B was acetonitrile/isopropanol (90/10; v/v) containing 0.1% formic acid. The flow rate was 0.90 mL/minute. The gradient conditions for human plasma and urine samples were as follows:
The LC/MS/MS method was validated to quantify 3,4-DAP in human plasma in the linear calibration range of 0.500 to 500 ng/mL and from 1.00 to 1000 ng/mL for the 3-N-acetyl metabolite.
The primary objective of the study was to assess the safety and tolerability of 3,4-DAP phosphate after single and multiple doses. The secondary objectives of the study were • Part 1 only: To determine the dose-related PK profile of amifampridine and of 3-N-acetyl amifampridine after single, escalating doses of 3,4-DAP phosphate • Part 2 only: To assess the steady-state plasma PK and accumulation of amifampridine and of 3-N-acetyl amifampridine over multiple days of dosing with 3,4-DAP phosphate An exploratory objective was to examine the overall activity of the N-acetyl transferase enzymes on the metabolism of amifampridine by assessing the PK of amifampridine and 3-N-acetyl amifampridine with phenotypic acetylation activity and genotyping determination of NAT2 gene polymorphisms. Study Design and Plan
This open-label study in healthy subjects (male and female) was conducted in 2 parts. A total of 26 healthy male and female subjects, 12 in Part 1 (at least 5 of each sex), 4 in Part 2 Group 1, and 10 in Part 2 Group 2 (at least 4 of each sex) were enrolled into the study. The same subjects were not enrolled to participate in both parts. Subjects in Part 2 were dosed only after all subjects of Part 1 completed dosing and at least 24-hours of follow-up safety evaluation after the last dose were completed.
All subjects were characterized for their metabolic acetylation phenotype and NAT2 genotype in order to divide subjects into two groups of acetylators. Volunteers were genetically typed for highly variant alleles of the N-acetyl transferase 2 enzyme (NAT2) domain on chromosome 8 (according to Example 16) and were phenotyped for acetylation rates with a caffeine challenge test (according to Example 15a). Approximately equal numbers of slow and fast acetylators (as defined by a caffeine challenge test in Example 15a) were enrolled in each group. In Part 2, very slow acetylators with NAT2 activity (ratio 1, Example 15a) below 0.06 were excluded from participation in the study. In each part of the study, subjects were assessed for PK, safety, and tolerability and all doses were administered within 30 min of ingestion of a meal or a snack.
Part 2, Group 1: Four sentinel subjects were selected after determining their acetylator status. Two were fast acetylators and two were slow acetylators. All four were dosed on Day 1 with 4 oral doses of 20 mg of 34-DAP phosphate (given at 4-hour dosing intervals). On Days […] and 2, safety and tolerability data was collected. Subjects left the clinic on Day 2. The safety and tolerability data collected for these 4 sentinel subjects were reviewed. The safety and tolerability results of Days 1 and 2 for these subjects were acceptable and thus Part 2 Group 2 was commenced. Minimally acceptable safety was defined as the absence of clinical seizure activity. Subjects in Group 1 returned to the clinic for their follow-up assessments 2-4 days following their last dose.
Each subject was given a final morning dose of 20 mg 3,4-DAP phosphate on Day 4. […]

[1] = Day 1, Dose 1, fast acetylators, 20 mg QID
[2] = Day 1, Dose 1, slow acetylators, 20 mg QID
[3] = Day 1, Dose 2, fast acetylators, 20 mg QID
[4] = Day 1, Dose 2, slow acetylators, 20 mg QID
[5] = Day 1, Dose 3, fast acetylators, 20 mg QID
[6] = Day 1, Dose 3, slow acetylators, 20 mg QID
[7] = Day 1, Dose 4, fast acetylators, 20 mg QID
[8] = Day 1, Dose 4, slow acetylators, 20 mg QID
[9] = Day 3, Dose 1, fast acetylators, 20 mg QID
[10] = Day 3, Dose 1, slow acetylators, 20 mg QID
[11] = Day 3, Dose 2, fast acetylators, 20 mg QID
[12] = Day 3, Dose 2, slow acetylators, 20 mg QID
[13] = Day 3, Dose 3, fast acetylators, 20 mg QID
[14] = Day 3, Dose 3, slow acetylators, 20 mg QID
[15] = Day 3, Dose 4, fast acetylators, 20 mg QID
[16] = Day 3, Dose 4, slow acetylators, 20 mg QID
[17] = Day 4, 20 mg single dose, fast acetylators
[18] = Day 4, 20 mg single dose, slow acetylators

SMILES: Nc1ccncc1N [3,4-DAP, 3,4-diaminopyridine]
- Mean CL/F [1]: 898 L/h
- Mean CL/F [2]: 152 L/h
- Mean CL/F [3]: 757 L/h
- Mean CL/F [4]: 107 L/h
- Mean CL/F [5]: 879 L/h
- Mean CL/F [6]: 117 L/h
- Mean CL/F [7]: 885 L/h
- Mean CL/F [8]: 101 L/h
- Mean CL/F [9]: 973 L/h
- Mean CL/F [10]: 124 L/h
- Mean CL/F [11]: 607 L/h
- Mean CL/F [12]: 92.9 L/h
- Mean CL/F [13]: 817 L/h
- Mean CL/F [14]: 103 L/h
- Mean CL/F [15]: 795 L/h
- Mean CL/F [16]: 73.2 L/h
- Mean CL/F [17]: 673 L/h
- Mean CL/F [18]: 108 L/h
- AUC(0-t) (Day 1, Dose 1, fast acetylators, 20 mg QID, read-out: Mean AUC0-4): 23.5 ng·h/mL
- Cmax (Day 1, Dose 1, fast acetylators, 20 mg QID, read-out: Mean Cmax): 24.4 ng/mL
- Tmax [1]: 0.809 h
- Vd/F [1]: 1330 L
- half-life [1]: 1.12 h
- AUC(0-t) (Day 1, Dose 1, slow acetylators, 20 mg QID, read-out: Mean AUC0-4): 115 ng·h/mL
- Cmax (Day 1, Dose 1, slow acetylators, 20 mg QID, read-out: Mean Cmax): 74.8 ng/mL
- Tmax [2]: 1.12 h
- Vd/F [2]: 299 L
- half-life [2]: 1.39 h
- AUC(0-t) (Day 1, Dose 1-4, fast acetylators, 20 mg QID, read-out: Mean AUC0-24): 97.9 ng·h/mL
- AUC(0-t) (Day 1, Dose 1-4, slow acetylators, 20 mg QID, read-out: Mean AUC0-24): 630 ng·h/mL
- AUC(0-t) (Day 1, Dose 2, fast acetylators, 20 mg QID, read-out: Mean AUC0-4): 22.5 ng·h/mL
- Cmax (Day 1, Dose 2, fast acetylators, 20 mg QID, read-out: Mean Cmax): 13.3 ng/mL
- Tmax [3]: 1.07 h
- Vd/F [3]: 1340 L
- half-life [3]: 1.31 h
- AUC(0-t) (Day 1, Dose 2, slow acetylators, 20 mg QID, read-out: Mean AUC0-4): 152 ng·h/mL
- Cmax (Day 1, Dose 2, slow acetylators, 20 mg QID, read-out: Mean Cmax): 83.7 ng/mL
- Tmax [4]: 1.14 h
- Vd/F [4]: 293 L
- half-life [4]: 1.93 h
- AUC(0-t) (Day 1, Dose 3, fast acetylators, 20 mg QID, read-out: Mean AUC0-4): 24.1 ng·h/mL
- Cmax (Day 1, Dose 3, fast acetylators, 20 mg QID, read-out: Mean Cmax): 16.8 ng/mL
- Tmax [5]: 0.583 h
- Vd/F [5]: 1720 L
- half-life [5]: 1.3 h
- AUC(0-t) (Day 1, Dose 3, slow acetylators, 20 mg QID, read-out: Mean AUC0-4): 140 ng·h/mL
- Cmax (Day 1, Dose 3, slow acetylators, 20 mg QID, read-out: Mean Cmax): 72.2 ng/mL
- Tmax [6]: 0.857 h
- Vd/F [6]: 269 L
- half-life [6]: 1.59 h
- AUC(0-t) (Day 1, Dose 4, fast acetylators, 20 mg QID, read-out: Mean AUC0-4): 23.7 ng·h/mL
- Cmax (Day 1, Dose 4, fast acetylators, 20 mg QID, read-out: Mean Cmax): 16.4 ng/mL
- Tmax [7]: 0.643 h
- Vd/F [7]: 1730 L
- half-life [7]: 1.49 h
- AUC(0-t) (Day 1, Dose 4, slow acetylators, 20 mg QID, read-out: Mean AUC0-4): 145 ng·h/mL
- Cmax (Day 1, Dose 4, slow acetylators, 20 mg QID, read-out: Mean Cmax): 67.1 ng/mL
- Tmax [8]: 1.29 h
- Vd/F [8]: 338 L
- half-life [8]: 2.52 h
- AUC(0-t) (Day 3, Dose 1, fast acetylators, 20 mg QID, read-out: Mean AUC0-4): 24.9 ng·h/mL
- Cmax (Day 3, Dose 1, fast acetylators, 20 mg QID, read-out: Mean Cmax): 24 ng/mL
- Tmax [9]: 0.8 h
- Vd/F [9]: 1390 L
- half-life [9]: 1.07 h
- AUC(0-t) (Day 3, Dose 1, slow acetylators, 20 mg QID, read-out: Mean AUC0-4): 130 ng·h/mL
- Cmax (Day 3, Dose 1, slow acetylators, 20 mg QID, read-out: Mean Cmax): 81.2 ng/mL
- Tmax [10]: 1 h
- Vd/F [10]: 283 L
- half-life [10]: 1.6 h
- AUC(0-t) (Day 3, Dose 1-4, fast acetylators, 20 mg QID, read-out: Mean AUC0-24): 111 ng·h/mL
- AUC(0-t) (Day 3, Dose 1-4, slow acetylators, 20 mg QID, read-out: Mean AUC0-24): 701 ng·h/mL
- AUC(0-t) (Day 3, Dose 2, fast acetylators, 20 mg QID, read-out: Mean AUC0-4): 28.5 ng·h/mL
- Cmax (Day 3, Dose 2, fast acetylators, 20 mg QID, read-out: Mean Cmax): 18.7 ng/mL
- Tmax [11]: 0.9 h
- Vd/F [11]: 1110 L
- half-life [11]: 1.34 h
- AUC(0-t) (Day 3, Dose 2, slow acetylators, 20 mg QID, read-out: Mean AUC0-4): 164 ng·h/mL
- Cmax (Day 3, Dose 2, slow acetylators, 20 mg QID, read-out: Mean Cmax): 96.1 ng/mL
- Tmax [12]: 1 h
- Vd/F [12]: 260 L
- half-life [12]: 1.97 h
- AUC(0-t) (Day 3, Dose 3, fast acetylators, 20 mg QID, read-out: Mean AUC0-4): 25.8 ng·h/mL
- Cmax (Day 3, Dose 3, fast acetylators, 20 mg QID, read-out: Mean Cmax): 21.9 ng/mL
- Tmax [13]: 0.532 h
- Vd/F [13]: 2200 L
- half-life [13]: 1.73 h
- AUC(0-t) (Day 3, Dose 3, slow acetylators, 20 mg QID, read-out: Mean AUC0-4): 156 ng·h/mL
- Cmax (Day 3, Dose 3, slow acetylators, 20 mg QID, read-out: Mean Cmax): 80.9 ng/mL
- Tmax [14]: 0.8 h
- Vd/F [14]: 241 L
- half-life [14]: 1.63 h
- AUC(0-t) (Day 3, Dose 4, fast acetylators, 20 mg QID, read-out: Mean AUC0-4): 25.1 ng·h/mL
- Cmax (Day 3, Dose 4, fast acetylators, 20 mg QID, read-out: Mean Cmax): 16.2 ng/mL
- Tmax [15]: 0.8 h
- Vd/F [15]: 1870 L
- half-life [15]: 1.82 h
- AUC(0-t) (Day 3, Dose 4, slow acetylators, 20 mg QID, read-out: Mean AUC0-4): 168 ng·h/mL
- Cmax (Day 3, Dose 4, slow acetylators, 20 mg QID, read-out: Mean Cmax): 97.1 ng/mL
- Tmax [16]: 0.6 h
- Vd/F [16]: 376 L
- half-life [16]: 3.56 h
- AUC(0-t) (Day 4, 20 mg single dose, fast acetylators, read-out: Mean AUC0-4): 22.6 ng·h/mL
- AUC(0-t) (Day 4, 20 mg single dose, fast acetylators, read-out: Mean AUC0-24): 25.9 ng·h/mL
- Cmax (Day 4, 20 mg single dose, fast acetylators, read-out: Mean Cmax): 13.6 ng/mL
- Tmax [17]: 0.9 h
- Vd/F [17]: 1770 L
- half-life [17]: 1.95 h
- AUC(0-t) (Day 4, 20 mg single dose, slow acetylators, read-out: Mean AUC0-4): 133 ng·h/mL
- AUC(0-t) (Day 4, 20 mg single dose, slow acetylators, read-out: Mean AUC0-24): 186 ng·h/mL
- Cmax (Day 4, 20 mg single dose, slow acetylators, read-out: Mean Cmax): 72.5 ng/mL
- Tmax [18]: 1.2 h
- Vd/F [18]: 486 L
- half-life [18]: 3.24 h
- Cmax (Days 1-4, 20 mg QID, fast acetylators, read-out: plasma mean Cmax values, range): 13.3 to 24.4 ng/mL
- Cmax (Days 1-4, 20 mg QID, slow acetylators, read-out: plasma mean Cmax values, range): 67.1 to 97.1 ng/mL
